Assay results taken from US11452720B2, “Crystalline polymorphs of the free base of 2-hydroxy-6-((2-(1-isopropyl-1H-pyrazol-5-yl)pyridin-3-yl)methoxy)benzaldehyde” (Global Blood Therapeutics, Inc., priority 2014, dated 2022).
Entries after “also recorded” stand apart in the source; their conditions may differ. Where a name gives a salt, the structure may show the parent alone.

Key:
Assay type in all cases: physicochemical
[1] = Dynamic vapor sorption (DVS) with post-DVS XRPD; settings: for DVS weight loss from 95 to 5% RH: desorption 95 to 5% RH; for post-DVS XRPD result: material recovered from the DVS experiment; for DVS weight gain from 5 to 95% RH: sorption 5 to 95% RH
Protocol: Dynamic vapor sorption (DVS) data were collected on a VTI SGA-100 Vapor Sorption Analyzer. NaCl and PVP were used as calibration standards. Samples were not dried prior to analysis. Adsorption and desorption data were collected over a range from 5 to 95% RH at 10% RH increments under a nitrogen purge. The equilibrium criterion used for analysis was less than 0.0100% weight change in 5 minutes with a maximum equilibration time of 3 hours. Data were not corrected for the initial moisture content of the samples.

[2] = Chemical and physical stability evaluation of Free Base Form I (UPLC, XRPD)
Protocol: Three conditions were used; open to 25° C./60% RH, open to 40° C./75% RH, and closed to 60° C. Physical stability was evaluated by XRPD. Chemical stability was determined through UPLC and ^1H NMR, when applicable. Materials were tested after 1, 7, and 14 days of exposure.

[3] = Estimated transition temperature and relative thermodynamic stability of free base forms
From the text: Phase transitions of solids can be thermodynamically reversible or irreversible. Crystalline forms which transform reversibly at a specific transition temperature (T) are called enantiotropic polymorphs. If the crystalline forms are not interconvertable under these conditions, the system is monotropic (one thermodynamically stable form). Several rules have been developed to predict the relative thermodynamic stability of polymorphs and whether the relationship between the polymorphs is enantiotropic or monotropic. The heat of fusion rule is applied within this study. The heat of fusion rule states that if the higher melting form has the lower heat of fusion then the two forms are enantiotropic, otherwise they are monotropic.
The estimated transition temperature between two enantiotropically related forms can be calculated from their melt onsets and heats of fusion based on the equation shown below.

[4] = Physical stability evaluation of Free Base Form II and Material N (modulated DSC / temperature and humidity exposure, then XRPD); settings: for change in physical form by XRPD: 40° C./75% RH, 80° C./80% RH for 9 days; for change in physical form by XRPD after modulated DSC: underlying heating rate 0.02° C. min^−1
Protocol: DSC was modulated at low underlying heating rate, followed by X-ray powder diffraction. A low underlying heating rate was used of 0.02° C. min^−1. The temperature was 80° C. for form N and 90° C. for form II. Exposure was essentially isothermal, covering a temperature range with sensitivity to detect changes in physical form. The resultant materials were examined by X-ray powder diffraction.
Forms II and N were exposed to 40° C./75% relative humidity (RH), 80° C., 80° C./80% RH for 9 days followed by X-ray powder diffraction.

[5] = Ambient storage of Form II, reanalysis by XRPD; settings: after 7 days
From the text: The form is known to be thermodynamically metastable, relative to Material N, at this condition; however, the kinetics of polymorph conversion may be slow at ambient conditions in the solid state.

[6] = Physical stability of the HCl salt exposed to water (disproportionation, XRPD)
Protocol: Solutions were prepared by adding enough solids to a given solvent so that excess solids were present. The mixture was then agitated in a sealed vial at either ambient or an elevated temperature. After a given amount of time, the solids were isolated for analysis.
(§1) The HCl salt (termed “HCl Form I”) was subjected to various stress conditions and monitored by XRPD to evaluate physical stability. […] Disproportionation is further evident with wet milling or in direct contact with water (e.g. slurry) as shown by the presence of Free Base Forms I or II, identified by XRPD. […] (after 12 hrs), 40° C. (after 6 hrs), and at 40° C./48 mmHg (after 6 hrs). • Free Base Material C becomes evident at more extreme conditions involving elevated temperatures. Heating HCl Form I up to 125° C. induces the loss of acidic volatiles (judged visually by use of pH paper held above sample). […] Exposing the HCl salt to 60° C. under vacuum for 6 days provides the same result. The nature of Material C is not established

[7] = Physical stability of the HCl salt exposed to elevated temperature and/or vacuum (XRPD)
Protocol: Selected materials were stressed at elevated related humidity and/or temperature. Relative humidity jars (saturated salt solutions used to generate desired relative humidity) were utilized to store selected samples. The following relative humidity jars were utilized during evaluation: 75% RH (NaCl) and 60% (NaBr), to investigate the effects of humidity. Temperatures utilized were ambient, 30, 40, 60, and 100-125° C.
Selected materials were stressed under reduced pressure for a set time period. Initial stressing was conducted with the in-house vacuum system with absolute pressure readings <500 mTorr, typically 30 to 50 mTorr (0.030 to 0.05 mm Hg). Additional vacuum stressing was conducted at 48 mmHg utilizing a portable lab vacuum and bleed to simulate conditions similar to those expected during process.
as §1

[8] = Physical stability of the HCl salt with grinding (XRPD); settings: 30 min
Protocol: Selected material was milled utilizing a Reitch Mill. The material was loaded into an agate lined milling vessel followed by the addition of an agate ball. The vessel was then placed on to the mill and milled for approximately 30 minutes at frequency of […]. The milling was stopped approximately every 10 minutes and material scraped from the wall before further milling.

[9] = Extended solvent mediated maturation of form II / form N mixtures in hexane; settings: temperatures of 20° C. and lower
Protocol: Extended solvent mediated maturation studies were conducted with 1:1 w/w mixtures of polymorphic form II and form N. Hexane provided a good medium for solvent assessments. The temperatures used include −20° C., −10° C., 0° C., 10° C., 20° C., 30° C., 40° C. and 50° C. […] Solids derived from maturation at −20° C., −10° C., 0° C., 10° C., 20° C. were analyzed by X-ray powder diffraction.

[10] = Disproportionation of the sulfate salt when precipitated with water; settings: from solvents such as dimethyl sulfoxide and methanol when precipitated with water
From the text: This invention arises in part out the discovery that an HCl salt of Compound 1 disproportionates or loses HCl, and a disproportionation of the HCl salt of Compound 1 in water generates the free base and disproportionation was facile upon exposure to elevated humidity, with wet milling, and in direct contact with water (e.g. slurry). The sulfate salt of Compound 1 also disproportionates from certain solvents such as dimethyl sulfoxide and methanol when precipitated with water. The volatilization of HCl was evident within hours of exposure to drying conditions. For example, partial conversion to the free base was observed within 12 hours at 30° C. Accordingly, the free base of Compound 1 provides a stabler chemical entity compared to the corresponding HCl or sulfate and such other salt.

## CC(C)n1nccc1-c1ncccc1COc1cccc(O)c1C=O [Form I, 2-hydroxy-6-((2-(1-isopropyl-1H-pyrazol-5-yl)pyridin-3-yl)methoxy)benzaldehyde]
[1]
  hygroscopicity by DVS isotherm: not hygroscopic
  DVS weight loss from 95 to 5% RH: 0.22% loss from 95 to 5% RH
  post-DVS XRPD result: predominately Free Base Form I with a few additional peaks; also recorded: Free Base Form I + other Free Base Material
  DVS weight gain from 5 to 95% RH: 0.22% gain from 5 to 95% RH
[1]; DVS
  weight gain and loss through sorption/desorption: 0.2%
[1]; equilibration at 5% RH
  DVS weight loss upon equilibration at 5% RH: 0.02% loss upon equilibration at 5% RH
[2]; open 25° C./60% RH, open 40° C./75% RH, closed 60° C., after 14 days
  chemical stability: level of impurities by UPLC: did not rise significantly
[2]; open to 25° C./60% RH, 1, 7 and 14 days
  physical stability by XRPD: remained unchanged
[2]; open to 40° C./75% RH and closed to 60° C., after 7 days
  physical stability by XRPD: Free Base Form II was observed

## CC(C)n1nccc1-c1ncccc1COc1cccc(O)c1C=O [Form II, 2-hydroxy-6-((2-(1-isopropyl-1H-pyrazol-5-yl)pyridin-3-yl)methoxy)benzaldehyde]
[3]; Above T^N-II
  Relative Stability: (II > I)
[3]; Below 6° C.
  Relative Stability: N > II
[3]; Between 6° C. and T^N-II
  Relative Stability: N > II > I
[4]; 80° C.
  change in physical form by XRPD: No changes in physical form
[4]; 90° C.
  change in physical form by XRPD after modulated DSC: No changes in physical form
[5]
  XRPD after storage: remained unchanged; also recorded: Free Base Form II

## CC(C)n1nccc1-c1ncccc1COc1cccc(O)c1C=O [HCl salt of Compound 1, 2-hydroxy-6-((2-(1-isopropyl-1H-pyrazol-5-yl)pyridin-3-yl)methoxy)benzaldehyde]
[6]; contact with water
  disproportionation on contact with water: Immediate disproportionation occurs; also recorded: disproportionate immediately
[6]; vacuum dried, about 1 day
  XRPD Result: FB I
[6]; water slurry, about 5 min
  XRPD Result: Free base (FB) I
[6]; water slurry, about 5 min, listed as HCl salt
  XRPD Result: Free Base Form I
[6]; water slurry, about 6 days
  XRPD Result: FB I + FB II
[7]; 30° C.
  time after which conversion to Free Base Form I was observed by XRPD: 12 h
[7]; 30° C., 6 hrs
  XRPD Result: HCl I
[7]; 30° C., 12 hrs
  XRPD Result: HCl I + FB I
[7]; 30° C., 24 hrs
  XRPD Result: HCl I + FB I
[7]; 30° C., drying conditions
  time within which partial conversion to the free base was observed: ≤ 12 h
[7]; 40° C.
  time after which conversion to Free Base Form I was observed by XRPD: 6 h
[7]; 40° C. vacuum, 6 hrs
  XRPD Result: HCl I + FB I
[7]; 40° C. vacuum, 12 hrs
  XRPD Result: HCl I + FB I
[7]; 40° C. vacuum, 24 hrs
  XRPD Result: HCl I + FB I
[7]; 40° C., 6 hrs
  XRPD Result: HCl I + FB I
[7]; 40° C., 12 hrs
  XRPD Result: HCl I + FB I
[7]; 40° C., 24 hrs
  XRPD Result: HCl I + FB I
[7]; 40° C./48 mmHg
  time after which conversion to Free Base Form I was observed by XRPD: 6 h
[7]; 60° C. vacuum, 6 days
  XRPD Result: HCl I + FB I +
[7]; 60° C. vacuum, 6 days, listed as HCl salt
  XRPD Result: same result
[7]; 60° C., 6 days
  XRPD Result: HCl I + FB I
[7]; 100 to 125° C., 20 min
  XRPD Result: HCl I + FB I +
[7]; 100 to 125° C., 20 min, listed as HCl Form I
  XRPD Result: mixture of HCl Form I, Free Base Form I, and Free Base Material C
[7]; RT vacuum, 6 days
  XRPD Result: HCl I + FB I
[1]
  DVS weight loss from 95 to 5% RH: 0.09% loss from 95 to 5% RH
  post-DVS XRPD result: HCl I + Free Base Form I
  DVS weight gain from 5 to 95% RH: 0.10% gain from 5 to 95% RH
[1]; equilibration at 5% RH
  DVS weight gain upon equilibration at 5% RH: 0.03% gain upon equilibration at 5% RH
[1]; listed as HCl salt
  post-DVS XRPD result: disproportionation occurred
[8]; dry
  XRPD Result: HCl I
[8]; wet
  XRPD Result: HCl I + FB I

## CC(C)n1nccc1-c1ncccc1COc1cccc(O)c1C=O [Material N, 2-hydroxy-6-((2-(1-isopropyl-1H-pyrazol-5-yl)pyridin-3-yl)methoxy)benzaldehyde]
[3]; Below 6° C.
  Relative Stability: N > II
[3]; Between 6° C. and T^N-II
  Relative Stability: N > II > I
[4]; 80° C.
  change in physical form by XRPD: No changes in physical form
  change in physical form by XRPD after modulated DSC: No changes in physical form
[9]
  relative thermodynamic stability: thermodynamically more stable than form II

## CC(C)n1nccc1-c1ncccc1COc1cccc(O)c1C=O [sulfate salt of Compound 1, 2-hydroxy-6-((2-(1-isopropyl-1H-pyrazol-5-yl)pyridin-3-yl)methoxy)benzaldehyde]
[10]
  disproportionation of the salt: disproportionates
